Test results reported in the supplement of paper PMC10307832.

What was measured:
Assay in all cases: relative viability (nuclei count vs DMSO), 5 days (fraction); higher = more cells survive
CAP-232 + Navitoclax = compound: C[C@H]([C@@H](C(=O)N)NC(=O)[C@@H]1CSSC[C@@H](C(=O)N[C@H](C(=O)N[C@@H](C(=O)N[C@H](C(=O)N1)CCCCN)CC2=CNC3=CC=CC=C32)CC4=CC=C(C=C4)O)NC(=O)[C@@H](CC5=CC=CC=C5)N)O [CAP-232] + CC1(C)CCC(c2ccc(Cl)cc2)=C(CN2CCN(c3ccc(C(=O)NS(=O)(=O)c4ccc(N[C@H](CCN5CCOCC5)CSc5ccccc5)c(S(=O)(=O)C(F)(F)F)c4)cc3)CC2)C1 [Navitoclax] (partner 0.5 µM)
Procedure, shortened: (§1)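 Relative viability equals treated-well nuclei counts divided by vehicle-well nuclei counts. Counts came from 4× images of lung cancer cell lines grown in 1536-well plates for 5 days after pin-tool dosing on the day after seeding. Dosing used one drug alone or a fixed anchor-drug dose plus five library-drug doses (not always all listed) in √10 steps, and values are medians of duplicate plates.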

CAP-232 + Tozasertib = compound: C[C@H]([C@@H](C(=O)N)NC(=O)[C@@H]1CSSC[C@@H](C(=O)N[C@H](C(=O)N[C@@H](C(=O)N[C@H](C(=O)N1)CCCCN)CC2=CNC3=CC=CC=C32)CC4=CC=C(C=C4)O)NC(=O)[C@@H](CC5=CC=CC=C5)N)O [CAP-232] + Cc1cc(Nc2cc(N3CCN(C)CC3)nc(Sc3ccc(NC(=O)C4CC4)cc3)n2)n[nH]1 [Tozasertib] (partner 0.1 µM)
Procedure, shortened: as §1

CAP-232 + Decitabine = compound: C[C@H]([C@@H](C(=O)N)NC(=O)[C@@H]1CSSC[C@@H](C(=O)N[C@H](C(=O)N[C@@H](C(=O)N[C@H](C(=O)N1)CCCCN)CC2=CNC3=CC=CC=C32)CC4=CC=C(C=C4)O)NC(=O)[C@@H](CC5=CC=CC=C5)N)O [CAP-232] + Nc1ncn([C@H]2C[C@H](O)[C@@H](CO)O2)c(=O)n1 [Decitabine] (partner 2 µM)
Procedure, shortened: as §1

CAP-232 + Foretinib = compound: C[C@H]([C@@H](C(=O)N)NC(=O)[C@@H]1CSSC[C@@H](C(=O)N[C@H](C(=O)N[C@@H](C(=O)N[C@H](C(=O)N1)CCCCN)CC2=CNC3=CC=CC=C32)CC4=CC=C(C=C4)O)NC(=O)[C@@H](CC5=CC=CC=C5)N)O [CAP-232] + COc1cc2c(Oc3ccc(NC(=O)C4(C(=O)Nc5ccc(F)cc5)CC4)cc3F)ccnc2cc1OCCCN1CCOCC1 [Foretinib] (partner 0.25 µM)
Procedure, shortened: as §1

CAP-232 + Dasatinib = compound: C[C@H]([C@@H](C(=O)N)NC(=O)[C@@H]1CSSC[C@@H](C(=O)N[C@H](C(=O)N[C@@H](C(=O)N[C@H](C(=O)N1)CCCCN)CC2=CNC3=CC=CC=C32)CC4=CC=C(C=C4)O)NC(=O)[C@@H](CC5=CC=CC=C5)N)O [CAP-232] + Cc1nc(Nc2ncc(C(=O)Nc3c(C)cccc3Cl)s2)cc(N2CCN(CCO)CC2)n1 [Dasatinib] (partner 0.075 µM)
Procedure, shortened: as §1

| Cell Line | relative viability (CAP-232 + Navitoclax; first compound 0.4 µM) | relative viability (CAP-232 + Navitoclax; first compound 1.265 µM) | relative viability (CAP-232 + Navitoclax; first compound 4 µM) | relative viability (CAP-232 + Navitoclax; first compound 12.65 µM) | relative viability (CAP-232 + Tozasertib; first compound 0.4 µM) | relative viability (CAP-232 + Tozasertib; first compound 1.265 µM) | relative viability (CAP-232 + Tozasertib; first compound 4 µM) | relative viability (CAP-232 + Tozasertib; first compound 12.65 µM) | relative viability (CAP-232 + Decitabine; first compound 0.4 µM) | relative viability (CAP-232 + Decitabine; first compound 1.265 µM) | relative viability (CAP-232 + Decitabine; first compound 4 µM) | relative viability (CAP-232 + Decitabine; first compound 12.65 µM) | relative viability (CAP-232 + Foretinib; first compound 0.4 µM) | relative viability (CAP-232 + Foretinib; first compound 1.265 µM) | relative viability (CAP-232 + Foretinib; first compound 4 µM) | relative viability (CAP-232 + Foretinib; first compound 12.65 µM) | relative viability (CAP-232 + Dasatinib; first compound 0.4 µM) | relative viability (CAP-232 + Dasatinib; first compound 1.265 µM) | relative viability (CAP-232 + Dasatinib; first compound 4 µM) | relative viability (CAP-232 + Dasatinib; first compound 12.65 µM) |
| --- | --- | --- | --- | --- | --- | --- | --- | --- | --- | --- | --- | --- | --- | --- | --- | --- | --- | --- | --- | --- |
| HCC-44 | 1.03 | 0.977 | 1.16 | 1.14 | 0.919 | 0.95 | 1.18 | 1.09 | 1.03 | 0.962 | 0.972 | 0.935 |  |  |  |  |  |  |  |  |
| HCC-78 | 0.789 | 0.658 | 0.697 | 0.732 | 0.257 | 0.405 | 0.493 | 0.492 | 0.755 | 0.764 | 0.687 | 0.636 | 0.564 | 0.562 | 0.473 | 0.568 | 0.431 | 0.392 | 0.523 | 0.363 |
| HCC-366 | 1.06 | 1.17 | 1.2 | 1.09 | 0.132 | 0.106 | 0.108 | 0.078 | 0.407 | 0.301 | 0.317 | 0.384 | 0.914 | 0.948 | 0.891 | 0.898 | 0.71 | 0.568 | 0.771 | 0.685 |
| HCC-827 | 0.96 | 1 | 1.03 | 0.993 | 0.525 | 0.41 | 0.417 | 0.484 | 0.334 | 0.357 | 0.324 | 0.365 | 1.05 | 1 | 1.01 | 1.01 | 0.312 | 0.302 | 0.312 | 0.23 |
| HOP-62 | 0.792 | 0.955 | 1.17 | 0.902 | 0.347 | 0.388 | 0.387 | 0.406 | 0.255 | 0.209 | 0.256 | 0.229 | 1.04 | 1.07 | 1.01 | 1.03 | 0.703 | 0.667 | 0.655 | 0.547 |
| IA-LM | 0.78 | 0.871 | 0.805 | 0.372 |  |  |  |  |  |  |  |  | 1.15 | 1.14 | 1.22 | 0.386 |  |  |  |  |
| LC-2-ad | 0.428 | 0.363 | 0.497 | 0.33 | 0.518 | 0.478 | 0.439 | 0.267 | 0.866 | 0.705 | 0.76 | 0.771 | 0.875 | 0.878 | 0.894 | 0.524 | 0.907 | 0.525 | 0.547 | 0.26 |
| LCLC-103H |  |  |  |  | 0.544 | 0.47 | 0.479 | 0.572 | 0.777 | 0.687 | 0.735 | 0.704 | 0.838 | 0.735 | 0.802 | 0.827 | 0.528 | 0.455 | 0.499 | 0.403 |
